Measured values published in patent publication US20150087673A1, “METHODS FOR USING AND BIOMARKERS FOR AMPK-ACTIVATING COMPOUNDS” (RIGEL PHARMACEUTICALS, INC., priority 2013, published 2015).

Tested on: AMPK
Assay: AMPK activation assay (enzyme-linked immunosorbent assay)
Assay type: cell-based
Experimental: Compounds were assayed for their ability to activate AMPK using an enzyme-linked immunosorbent assay. Reagents and procedures for measuring AMPK activation are well known and kits for AMPK activation assays are commercially available.

Row | Compound | EC50 [nM]
1 | COc1ccc(C(=O)C2CCN(C(=O)c3ccc(C(=O)NC4CCN(Cc5ccc(C(=O)N(C)C)cc5)CC4)cn3)CC2)cc1 [Compound 490, N-(1-(4-(dimethylcarbamoyl)benzyl)piperidin-4-yl)-6-(4-(4-methoxybenzoyl)piperidine-1-carbonyl)nicotinamide] | 1000 to 5000
2 | CS(=O)(=O)c1ccc(OC2CCN(C(=O)c3ccc(C(=O)NC4CCN(Cc5cc(F)cc(F)c5)CC4)cn3)CC2)cc1 [Compound 236, N-(1-(3,5-difluorobenzyl)piperidin-4-yl)-6-(4-(4-(methylsulfonyl)phenoxy)piperidine-1-carbonyl)nicotinamide] | < 500
3 | CN(C)C(=O)c1ccc(OC2CCN(C(=O)c3ccc(C(=O)Nc4ccc(Oc5ccc(F)cc5)nc4)nc3)CC2)cc1 [Compound 360, 5-(4-(4-(dimethylcarbamoyl)phenoxy)piperidine-1-carbonyl)-N-(6-(4-fluorophenoxy)pyridin-3-yl)picolinamide] | < 500
4 | O=C(c1ccc(C(=O)N2CCN(CCc3ccccc3)CC2)nc1)N1CCN(c2ccccc2)CC1 [Compound 90, (4-phenethylpiperazin-1-yl)(5-(4-phenylpiperazine-1-carbonyl)pyridin-2-yl)methanone] | > 10000
5 | CC(C)(C)OC(=O)NCC#Cc1cc(C(=O)N2CCN(Cc3ccc(F)cc3)CC2)cnc1C(=O)NC1CCN(Cc2ccc(C#N)cc2)CC1 [Compound 164, tert-butyl 3-(2-(1-(4-cyanobenzyl)piperidin-4-ylcarbamoyl)-5-(4-(4-fluorobenzyl)piperazine-1-carbonyl)pyridin-3-yl)prop-2-ynylcarbamate] | 500 to 1000
6 | O=C(Nc1ccc(Oc2ccc(F)cc2)cc1)c1ccc(C(=O)N2CCN(Cc3ccc(F)cc3)CC2)cn1 [Compound 60, 5-(4-(4-fluorobenzyl)piperazine-1-carbonyl)-N-(4-(4-fluorophenoxy)phenyl)picolinamide] | < 500
7 | COc1ccc(CN2CCC(NC(=O)c3ccc(C(=O)N4CCC(C(=O)c5ccc(F)cc5F)CC4)nc3)CC2)cc1 [Compound 347, 6-(4-(2,4-difluorobenzoyl)piperidine-1-carbonyl)-N-(1-(4-methoxybenzyl)piperidin-4-yl)nicotinamide] | < 500
8 | O=C(c1ccc(C(=O)N2CCN(CCc3ccccc3)CC2)nc1)N1CCN(CCc2ccccc2)CC1 [Compound 92, pyridine-2,5-diylbis((4-phenethylpiperazin-1-yl)methanone)] | > 10000
9 | O=C(NC1CCN(Cc2ccc(Cl)cc2)CC1)c1ccc(C(=O)N2CCN(Cc3ccc(F)cc3)CC2)cn1 [Compound 52] | < 500
10 | N#Cc1ccc(CN2CCC(NC(=O)c3ccc(C(=O)N4CCC(c5ccc(Cl)cc5)CC4)cn3)CC2)cc1 [Compound 134, 5-(4-(4-chlorophenyl)piperidine-1-carbonyl)-N-(1-(4-cyanobenzyl)piperidin-4-yl)picolinamide] | < 500
11 | N#Cc1ccc(CN2CCC(NC(=O)c3ccc(C(=O)N4CCC(Oc5ccc(S(=O)(=O)C6CC6)cc5)CC4)nc3)CC2)cc1 [Compound 246, N-(1-(4-cyanobenzyl)piperidin-4-yl)-6-(4-(4-(cyclopropylsulfonyl)phenoxy)piperidine-1-carbonyl)nicotinamide] | < 500
12 | COc1ccc(OC2CCN(C(=O)c3ccc(C(=O)NC4CCN(Cc5cc(F)cc(F)c5)CC4)nc3)CC2)cc1 [Compound 296, N-(1-(3,5-difluorobenzyl)piperidin-4-yl)-5-(4-(4-methoxyphenoxy)piperidine-1-carbonyl)picolinamide] | < 500
13 | O=C(NC1CCN(Cc2cc(F)cc(F)c2)CC1)c1ccc(C(=O)N2CCC(C(=O)c3ccc(F)c(F)c3)CC2)cn1 [Compound 298, 5-(4-(3,4-difluorobenzoyl)piperidine-1-carbonyl)-N-(1-(3,5-difluorobenzyl)piperidin-4-yl)picolinamide] | < 500
14 | N#Cc1ccc(OC2CCN(C(=O)c3ccc(C(=O)NC4CCN(Cc5ccc(N6CCOCC6)cc5)CC4)cn3)CC2)cc1 [Compound 337, 6-(4-(4-cyanophenoxy)piperidine-1-carbonyl)-N-(1-(4-morpholinobenzyl)piperidin-4-yl)nicotinamide] | < 500
15 | N#Cc1ccc(CN2CCC(NC(=O)c3ccc(C(=O)N4CCC(C(=O)c5ccc(Cl)cc5)CC4)cn3)CC2)cc1 [Compound 154, 5-(4-(4-chlorobenzoyl)piperidine-1-carbonyl)-N-(1-(4-cyanobenzyl)piperidin-4-yl)picolinamide] | < 500
16 | O=C(NC1CCN(Cc2cccc(OC(F)(F)F)c2)CC1)c1ccc(C(=O)N2CCC(C(=O)c3ccc(N4CCCC4)cc3)CC2)nc1 [Compound 441, 6-(4-(4-(pyrrolidin-1-yl)benzoyl)piperidine-1-carbonyl)-N-(1-(3-(trifluoromethoxy)benzyl)piperidin-4-yl)nicotinamide] | < 500
17 | COc1ccc(OC2CCN(C(=O)c3ccc(C(=O)N[C@H]4CC[C@@H](Oc5ccc(C(F)(F)F)cc5)CC4)nc3)CC2)cc1 [Compound 191, 5-(4-(4-methoxyphenoxy)piperidine-1-carbonyl)-N-((cis)-4-(4-(trifluoromethyl)phenoxy)cyclohexyl) picolinamide] | < 500
18 | COc1ccc(CN2CCC(NC(=O)c3ccc(C(=O)N4CCC(C(=O)c5ccc(F)cc5F)CC4)cn3)CC2)cc1 [Compound 331, 5-(4-(2,4-difluorobenzoyl)piperidine-1-carbonyl)-N-(1-(4-methoxybenzyl)piperidin-4-yl) picolinamide] | < 500
19 | N#Cc1ccc(CN2CC[C@H](NC(=O)c3ccc(C(=O)N4CCN(Cc5ccc(F)cc5)CC4)cn3)C2)cc1 [Compound 123, (S)-N-(1-(4-cyanobenzyl)pyrrolidin-3-yl)-5-(4-(4-fluorobenzyl)piperazine-1-carbonyl)picolinamide] | < 500
20 | NC(=O)c1ccc(CN2CCC(NC(=O)c3ccc(C(=O)N4CCN(Cc5ccc(F)cc5)CC4)cn3)CC2)cc1 [Compound 201, N-(1-(4-carbamoylbenzyl)piperidin-4-yl)-5-(4-(4-fluorobenzyl)piperazine-1-carbonyl)picolinamide] | 500 to 1000
21 | O=C(N[C@@H]1CCN(Cc2ccc(Cl)cc2)C[C@@H]1F)c1ccc(C(=O)N2CCN(Cc3ccc(F)cc3)CC2)cn1 (relative stereo) [Compound 127, N-(cis-1-(4-chlorobenzyl)-3-fluoropiperidin-4-yl)-5-(4-(4-fluorobenzyl)piperazine-1-carbonyl)picolinamide] | < 500
22 | COc1cc(C#N)ccc1OC1CCN(C(=O)c2ccc(C(=O)NC3CCN(Cc4ccc(C#N)cc4)CC3)nc2)CC1 [Compound 66, 5-(4-(4-cyano-2-methoxyphenoxy)piperidine-1-carbonyl)-N-(1-(4-cyanobenzyl)piperidin-4-yl)picolinamide] | < 500
23 | N#Cc1ccc(CN2CCC(NC(=O)c3ccc(NC4CCN(c5ccc(F)cc5)CC4)cn3)CC2)cc1 [Compound 276, N-(1-(4-cyanobenzyl)piperidin-4-yl)-5-(1-(4-fluorophenyl)piperidin-4-ylamino)picolinamide] | < 500
24 | CS(=O)(=O)c1ccc(C(=O)C2CCN(C(=O)c3ccc(C(=O)NC4CCN(Cc5ccc(F)cc5)CC4)cn3)CC2)cc1 [Compound 222, N-(1-(4-fluorobenzyl)piperidin-4-yl)-6-(4-(4-(methylsulfonyl)benzoyl)piperidine-1-carbonyl)nicotinamide] | 1000 to 5000
